These results are taken from patent US20120135009A1, “Cleaved and Phosphorylated CRMP2 as Blood Marker of Inflammatory Diseases of the Central Nervous System” (priority 2009, published 2012).

In the assay the test system is Jurkat T-cells. Nature of the assay: CRMP2 polarization in Jurkat cells adhering to collagen I-coated slides (immunofluorescence). The class given is cell-based. The procedure: The CRMP2 forms, Yes kinase and intermediary filament vimentin were detected by indirect immunofluorescence on Jurkat and primary T-cells adhered to collagen I-coated slides (20 μg/ml) and fixed following treatment (acetone −20° C.; 10 min). Cells were incubated with specific antibody (1 h, 37° C.) then with Alexa 488- or 546-conjugated anti-mouse or anti-rabbit or anti-sheep IgG antibodies (1 h, 37° C.) and examined using the Axioplan II fluorescence microscope (Carl Zeiss). Nuclear counter-staining was performed using a fluorescent DNA intercalant, 4′, 6′-diamidino-2-phenylindole (DAPI, Boehringer Mannheim).
To define a link between chemokines and CRMP2, the inventors first examined the localization of CRMP2 in Jurkat T-cells under CXCL12 signaling. They used two different anti-CRMP2 antibodies (anti-C-ter and anti-pep4) that recognize the full-length and cleaved products of CRMP2. […] This phenomenon of CRMP2 polarization was still observed after 30 minutes of treatment. […] In addition CRMP2 distribution to the uropod was concomitant with the re-localization of vimentin, which was quickly redistributed at the trailing edge of polarizing T-cells.

For “CXCL12: chemokine, stromal-derived-factor-1, ligand of the CXCR4 receptor”, the “increase of cells with polarized (asymmetrical) CRMP2 distribution” value (CXCL12 100 ng/mL, 2, 5 or 10 min, versus un-treated Jurkat T-cells) lay within 1.6 to 2 fold.

Turning to `c1cc(CN2CCCNCCNCCCNCC2)ccc1CN1CCCNCCNCCCNCC1` [AMD3100], the “decrease of CXCL12-induced CRMP2 re-localization” value (Jurkat cells treated with CXCL12 (100 ng/mL) in the presence of AMD3100) turned out to be 35%.
